# US20250282827A1, “LIPIDATED POLYMYXIN ANALOGUES” (priority 2021, published 2025)
# Positions of bridges follow the written chain, without caps; N, C: chain ends. Non-standard residues stand in square brackets, D forms with d. Residues, ends and D or L forms follow the SMILES beside them. *: point of attachment. Ethyl(2-decanoyloxy) = CCCCCCCCCC(=O)OCC*; Ethyl(2-butanoyloxy) = CCCC(=O)OCC*; Ethyl(2-propionyloxy) = CCC(=O)OCC*; Ethyl(2-OPiv) = CC(C)(C)C(=O)OCC*; Dab = NCC[C@H](N)C(=O)O; X8 = O=C(OCC*)C1CCCC1; X11 = O=C(OCC*)C1CC1; X5 = CCC(C)C(=O)OCC*; Mpa = O=C(O)CCS
# Columns and labels:
# [1] = tested on: E. coli ATCC 25922; format: cell-based, Escherichia coli; details: ATCC 25922
# From the text: (§1) All 81 compounds prepared in Examples 2 and 3 underwent screening against a panel of Gram-negative bacterium to assess their ability to inhibit bacterial growth. […] The median value is presented.
# [2] = tested on: E. coli ATCC MS8345; format: cell-based, Escherichia coli; details: ATCC MS8345
# From the text: as §1
# Expansion of the polymyxin macrocycle by substituting […]) offered little advantage in antimicrobial activity but was generally well tolerated although for A. baumanni and P. aeruginosa this was detrimental.
# [3] = tested on: A. baumannii ATCC 19606; format: cell-based, Acinetobacter baumannii; details: ATCC 19606
# From the text: as §1
# [4] = tested on: P. aeruginosa ATCC 27853; format: cell-based, Pseudomonas aeruginosa; details: ATCC 27853
# From the text: as §1
# [5] = tested on: K. pneumoniae ATCC 33495; format: cell-based, Klebsiella pneumoniae; details: ATCC 33495
# From the text: as §1
# [6] = tested on: K. pneumoniae ATCC MS6671; format: cell-based, Klebsiella pneumoniae; details: ATCC MS6671
# From the text: as §1
# [7] = tested on: K. pneumoniae ATCC 700603; format: cell-based, Klebsiella pneumoniae; details: ATCC 700603
# From the text: as §1
SMILES,MIC E. coli ATCC 25922 [1],MIC E. coli ATCC MS8345 [2],MIC A. baumannii ATCC 19606 [3],MIC P. aeruginosa ATCC 27853 [4],MIC K. pneumoniae ATCC 33495 [5],MIC K. pneumoniae ATCC MS6671 [6],MIC K. pneumoniae ATCC 700603 [7]
CC(C)C[C@@H]1NC(=O)[C@@H](Cc2ccccc2)NC(=O)[C@H](CCN)NC(=O)[C@@H](NC(=O)[C@H](CCN)NC(=O)[C@@H](NC(=O)[C@H](N)CSCCOC(=O)C2CCCC2)[C@@H](C)O)CCNC(=O)[C@H]([C@@H](C)O)NC(=O)[C@H](CCN)NC(=O)[C@H](CCN)NC1=O [Compound 102] (H-[dC](X8)T[Dab][Dab][Dab][dF]L[Dab][Dab]T; lactam 4-C),1 µg/mL,16 µg/mL,16 µg/mL,2 µg/mL,1 µg/mL,>32 µg/mL,1 µg/mL
CCC(=O)OCCSC[C@H](N)C(=O)N[C@@H](CCN)C(=O)N[C@H](C(=O)N[C@@H](CCN)C(=O)N[C@H]1CCCCNC(=O)[C@H]([C@@H](C)O)NC(=O)[C@H](CCN)NC(=O)[C@H](CCN)NC(=O)[C@H](CC(C)C)NC(=O)[C@@H](Cc2ccccc2)NC(=O)[C@H](CCN)NC1=O)[C@@H](C)O [Compound 23] (H-C(Ethyl(2-propionyloxy))[Dab]T[Dab]K[Dab][dF]L[Dab][Dab]T; lactam 5-C),4 µg/mL,>32 µg/mL,>32 µg/mL,>32 µg/mL,4 µg/mL,>32 µg/mL,>32 µg/mL
CCC(=O)OCCSC[C@H](N)C(=O)N[C@@H](CCN)C(=O)N[C@H](C(=O)N[C@@H](CCN)C(=O)N[C@H]1CCNC(=O)[C@H]([C@@H](C)O)NC(=O)[C@H](CCN)NC(=O)[C@H](CCN)NC(=O)[C@H](CSCCOC(=O)C(C)(C)C)NC(=O)[C@@H](Cc2ccccc2)NC(=O)[C@H](CCN)NC1=O)[C@@H](C)O [Compound 43] (H-C(Ethyl(2-propionyloxy))[Dab]T[Dab][Dab][Dab][dF]C(Ethyl(2-OPiv))[Dab][Dab]T; lactam 5-C),2 µg/mL,>32 µg/mL,>32 µg/mL,>32 µg/mL,16 µg/mL,>32 µg/mL,2 to 4 µg/mL
CCC(C)C(=O)OCCSC[C@@H](N)C(=O)N[C@H](C(=O)N[C@@H](CCN)C(=O)N[C@H]1CCNC(=O)[C@H]([C@@H](C)O)NC(=O)[C@H](CCN)NC(=O)[C@H](CCN)NC(=O)[C@H](CC(C)C)NC(=O)[C@@H](Cc2ccccc2)NC(=O)[C@H](CCN)NC1=O)[C@@H](C)O (stereo partly drawn) [Compound 95] (H-[dC](X5)T[Dab][Dab][Dab][dF]L[Dab][Dab]T; lactam 4-C),1 µg/mL,16 µg/mL,4 µg/mL,1 µg/mL,1 µg/mL,>32 µg/mL,2 µg/mL
CC(C)C[C@@H]1NC(=O)[C@@H](Cc2ccccc2)NC(=O)[C@H](CCN)NC(=O)[C@@H](NC(=O)[C@H](CCN)NC(=O)[C@@H](NC(=O)[C@H](N)CSCCOC(=O)C2CC2)[C@@H](C)O)CCNC(=O)[C@H]([C@@H](C)O)NC(=O)[C@H](CCN)NC(=O)[C@H](CCN)NC1=O [Compound 100] (H-[dC](X11)T[Dab][Dab][Dab][dF]L[Dab][Dab]T; lactam 4-C),4 µg/mL,>32 µg/mL,16 µg/mL,4 µg/mL,2 µg/mL,>32 µg/mL,4 µg/mL
CCCCCCCCCC(=O)OCCSC[C@H](N)C(=O)N[C@@H](CCN)C(=O)N[C@H](C(=O)N[C@@H](CCN)C(=O)N[C@H]1CCCCNC(=O)[C@H]([C@@H](C)O)NC(=O)[C@H](CCN)NC(=O)[C@H](CCN)NC(=O)[C@H](CC(C)C)NC(=O)[C@@H](Cc2ccccc2)NC(=O)[C@H](CCN)NC1=O)[C@@H](C)O [Compound 25] (H-C(Ethyl(2-decanoyloxy))[Dab]T[Dab]K[Dab][dF]L[Dab][Dab]T; lactam 5-C),2 µg/mL,16 to 32 µg/mL,>32 µg/mL,0.5 µg/mL,0.5 µg/mL,>32 µg/mL,2 µg/mL
CCCCCCCCCC(=O)OCCSC[C@@H]1NC(=O)[C@@H](Cc2ccccc2)NC(=O)[C@H](CCN)NC(=O)[C@@H](NC(=O)[C@H](CCN)NC(=O)[C@@H](NC(=O)[C@H](CCN)NC(=O)[C@@H](N)CSCCOC(=O)CCCCCCCCC)[C@@H](C)O)CCNC(=O)[C@H]([C@@H](C)O)NC(=O)[C@H](CCN)NC(=O)[C@H](CCN)NC1=O [Compound 37] (H-C(Ethyl(2-decanoyloxy))[Dab]T[Dab][Dab][Dab][dF]C(Ethyl(2-decanoyloxy))[Dab][Dab]T; lactam 5-C),2 to 4 µg/mL,4 µg/mL,4 µg/mL,4 µg/mL,2 µg/mL,>32 µg/mL,4 µg/mL
CCC(=O)OCCSCCC(=O)N[C@@H](CCN)C(=O)N[C@H](C(=O)N[C@@H](CCN)C(=O)N[C@H]1CCNC(=O)[C@H]([C@@H](C)O)NC(=O)[C@H](CCN)NC(=O)[C@H](CCN)NC(=O)[C@H](CC(C)C)NC(=O)[C@@H](Cc2ccccc2)NC(=O)[C@H](CCN)NC1=O)[C@@H](C)O [Compound 59] ([Mpa](Ethyl(2-propionyloxy))[Dab]T[Dab][Dab][Dab][dF]L[Dab][Dab]T; lactam 5-C),0.5 µg/mL,>32 µg/mL,32 µg/mL,2 µg/mL,0.5 µg/mL,>32 µg/mL,1 µg/mL
CCCC(=O)OCCSC[C@H](N)C(=O)N[C@@H](CCN)C(=O)N[C@H](C(=O)N[C@@H](CCN)C(=O)N[C@H]1CCNC(=O)[C@H]([C@@H](C)O)NC(=O)[C@H](CCN)NC(=O)[C@H](CCN)NC(=O)[C@H](CC(C)C)NC(=O)[C@@H](Cc2ccccc2)NC(=O)[C@H](CCN)NC1=O)[C@@H](C)O [Compound 30] (H-C(Ethyl(2-butanoyloxy))[Dab]T[Dab][Dab][Dab][dF]L[Dab][Dab]T; lactam 5-C),0.5 µg/mL,32 µg/mL,2 µg/mL,2 µg/mL,0.125 µg/mL,>32 µg/mL,0.5 µg/mL
